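Protocol summary: plate cells (96-well), add compound at 5 concentrations, incubate 48 h, interpolate endpoints linearly. The concentration for full growth arrest is given as TGI.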
Assays:
Test in all cases: NCI anticancer screen, dose series, 48 h
U251 CNS = tested on: U251 CNS
TK-10 renal = tested on: TK-10 renal
ACHN renal = tested on: ACHN renal
SK-MEL-5 melanoma = tested on: SK-MEL-5 melanoma
OVCAR-3 ovarian = tested on: OVCAR-3 ovarian
CAKI-1 renal = tested on: CAKI-1 renal
MALME-3M melanoma = tested on: MALME-3M melanoma
IGROV1 ovarian = tested on: IGROV1 ovarian
A549 NSCLC = tested on: A549 NSCLC
SN12C renal = tested on: SN12C renal
NCI/ADR-RES ovarian = tested on: NCI/ADR-RES ovarian
CCRF-CEM leukemia = tested on: CCRF-CEM leukemia
PC-3 prostate = tested on: PC-3 prostate
MDA-MB-231 breast = tested on: MDA-MB-231 breast
OVCAR-8 ovarian = tested on: OVCAR-8 ovarian
OVCAR-4 ovarian = tested on: OVCAR-4 ovarian
SW-620 colon = tested on: SW-620 colon
NCI-H460 lung = tested on: NCI-H460 lung
NCI-H522 lung = tested on: NCI-H522 lung
KM12 colon = tested on: KM12 colon
NCI-H23 lung = tested on: NCI-H23 lung
SF-268 CNS = tested on: SF-268 CNS
HL-60(TB) leukemia = tested on: HL-60(TB) leukemia
HCT-116 colon = tested on: HCT-116 colon
786-0 renal = tested on: 786-0 renal
COLO 205 colon = tested on: COLO 205 colon
SNB-19 CNS = tested on: SNB-19 CNS
HCT-15 colon = tested on: HCT-15 colon
UACC-62 melanoma = tested on: UACC-62 melanoma
HS 578T breast = tested on: HS 578T breast
SNB-75 CNS = tested on: SNB-75 CNS
SK-OV-3 ovarian = tested on: SK-OV-3 ovarian
RXF 393 renal = tested on: RXF 393 renal
MOLT-4 leukemia = tested on: MOLT-4 leukemia
HT29 colon = tested on: HT29 colon
MDA-N = tested on: MDA-N
MDA-MB-435 = tested on: MDA-MB-435
DU-145 prostate = tested on: DU-145 prostate
SK-MEL-28 melanoma = tested on: SK-MEL-28 melanoma
EKVX NSCLC = tested on: EKVX NSCLC
K-562 leukemia = tested on: K-562 leukemia
SF-295 CNS = tested on: SF-295 CNS
RPMI-8226 leukemia = tested on: RPMI-8226 leukemia
M14 melanoma = tested on: M14 melanoma
UACC-257 melanoma = tested on: UACC-257 melanoma
SK-MEL-2 melanoma = tested on: SK-MEL-2 melanoma
OVCAR-5 ovarian = tested on: OVCAR-5 ovarian
BT-549 breast = tested on: BT-549 breast
HOP-62 NSCLC = tested on: HOP-62 NSCLC
A498 renal = tested on: A498 renal
NCI-H226 lung = tested on: NCI-H226 lung
UO-31 renal = tested on: UO-31 renal
MCF7 breast = tested on: MCF7 breast
LOX IMVI melanoma = tested on: LOX IMVI melanoma
HOP-92 NSCLC = tested on: HOP-92 NSCLC
T-47D breast = tested on: T-47D breast
SR leukemia = tested on: SR leukemia
SF-539 CNS = tested on: SF-539 CNS
HCC-2998 colon = tested on: HCC-2998 colon

Measured: TGI

c1ccc2c(c1)NCCC(=NC1CCCCC1)N2
not listed: MCF7 breast | LOX IMVI melanoma | HOP-92 NSCLC | T-47D breast | SR leukemia | SF-539 CNS | HCC-2998 colon
> 100 µM: all other assays above

C=C(C)C1CC/C(C)=C/CCC2(C)OC2CC/C(CO)=C\C1O (stereo not drawn)
53.5 µM: HS 578T breast
not listed: SK-MEL-5 melanoma | NCI-H522 lung | BT-549 breast
> 100 µM: all other assays above
